Measurements from PMC11768359, “2-Aminothiophene Derivatives—New Drug Candidates Against Leishmaniasis: Drug Design, Synthesis, Pharmacomodulation, and Antileishmanial Activity” (Pharmaceuticals, 2025).
Where “and” joins values, the source holds several entries; their conditions need not be identical. Equal values may be shown once. Read-outs that look alike come from different tables or passages of the source.

Tests used:
[1] = tested on: promastigotes of L. amazonensis; experiment: Growth inhibition of promastigote forms of L. amazonensis (MTT); format: cell-based, Leishmania amazonensis; conditions: 72 h, 26 °C
Description: (§1) The in vitro tests utilized Leishmania amazonensis parasites (IFLA/BR/67/PH8). These leishmania cell lines were obtained from Oswaldo Cruz Foundation (FIOCRUZ)/Brazil. The promastigote forms were cultivated in Schneider’s insect medium at 26 °C in a biological oxygen demand (BOD) incubator. Schneider’s insect medium was supplemented with 20% fetal bovine serum (FBS) and 1% penicillin (100 U/mL) and streptomycin (µg/mL) (complete Schneider). Next, we differentiated them from promastigote forms by changing the conditions to Schneider’s insect medium supplemented with 5% FBS, pH 4.6, and a temperature of 32 °C to obtain axenic amastigote forms of L. amazonensis. Meanwhile, RAW 264.7 macrophages were cultured in […] cell culture flasks using DMEM medium supplemented with 10% FBS, 1% penicillin 100 U/mL, and 100 μg/mL streptomycin (complete DMEM) and incubated at 37 °C and 5% CO2.
(§2) Parasite growth inhibition was evaluated using the methodology described by Rodrigues et al. (2015). Cultures of logarithmically growing promastigote and axenic amastigote forms (1 × 10^6 parasites/mL) were incubated in 96-well plates containing 100 µL of supplemented Schneider’s medium in triplicate. Serial concentrations of 2-amino-thiophene and 2-amino-selenophene derivatives (10.00–0.156 μM) and the reference drugs meglumine antimoniate (500–40,000 μg/mL), amphoterecinB (0.1–2 μM), and pentamidine (3.12–100 µM) were added. BNP was used as a negative control. The cultures were incubated in a biological oxygen demand oven (model Eletrolab EL202, São Paulo, Brazil) at 26 °C for promastigotes and 32 °C for axenic amastigotes for 72 h. Then, 10 μL of MTT (5 mg/mL) was added to each well to colorimetrically evaluate growth inhibition. The plate was subsequently incubated for a further 4 h, followed by adding 50 μL of 10% sodium dodecyl sulfate solution for […] before the optical density of the culture was read on a microplate spectrophotometer reader. The reading was taken at the test and reference wavelengths of 540 and 620 nm using a microplate spectrophotometer. The negative control consisted of 0.2% […] with BNP, considered to be 100% viable.

[2] = tested on: axenic amastigotes of L. amazonensis; experiment: Growth inhibition of axenic amastigote forms of L. amazonensis (MTT); format: cell-based, Leishmania amazonensis; conditions: Leishmania amazonensis, 72 h, 32 °C
Description: as §1, §2

[3] = tested on: promastigotes of L. amazonensis; conditions: cited from earlier work
[4] = tested on: axenic amastigotes of L. amazonensis; conditions: cited from earlier work
RAW 264.7 macrophages = conditions: previously published; cited from earlier work
[5] = Cytotoxicity in macrophages (MTT); format: cell-based; conditions: mouse, RAW 264.7 macrophages
Description: as §1
First, 100 μL DMEM medium complete with 1 × 10^6 macrophages (RAW 264.7) was added to each well of a 96-well plate. RAW 264.7 macrophages were obtain from ATCC: code TIB-71^TM. The plate was placed in an incubator (37 °C, 5% CO2) (Sanyo, model COM-15A, Sanyo Electric Co., Osaka, Japan) for 4 h to promote cell adhesion. After this period, two washes were conducted with previously heated DMEM medium (37 °C) to remove non-adhered cells. 2-amino-thiophene and 2-amino-selenophene derivatives were added to wells at serial concentrations of 400 to 25 µM and then incubated for 48 h. Next, 10 μL of MTT at a […] of 5 mg/mL were added to each well and incubated for 4 h. The plate was then shaken for 30 min and read at the test and reference wavelengths of 550 and 620 nm, respectively, in a plate reader. DMEM medium supplemented with 0.5% DMSO was used as a negative control and considered as 100% macrophage viability. The selectivity index for each treatment was calculated as the ratio between the concentration of cytotoxicity of RAW 264.7 macrophages (CC50) and the 50% inhibitory concentration (IC50) or effective concentration (EC50), as measured for the different evolutionary forms of L. amazonensis.

[6] = L. amazonensis promastigotes, sensitive strain, read-out: IC50 anti-promastigote
[7] = L. amazonensis promastigotes, previously published, read-out: IC50 Promastigotes
[8] = L. amazonensis axenic amastigotes, previously published, read-out: IC50 Amastigotes
[9] = L. amazonensis, read-out: IC50 against promastigotes
[10] = L. amazonensis, read-out: IC50 against axenic amastigotes

For CC(C)(C)C1CCc2c(sc(/N=C/c3c[nH]c4ccc(Br)cc34)c2C#N)C1 (stereo not shown) [Compound 29], the IC50 ([1]; Leishmania amazonensis) was over 10 µM and the IC50 [2] was over 10 µM.

For N#Cc1c(/N=C/c2c[nH]c3ccccc23)sc2c1CCCCC2 [TN7, reference compound], the IC50 [3, 6] is listed as 10 µM.

With CCC1CCc2c(sc(/N=C/c3c[nH]c4ccc(Br)cc34)c2C#N)C1 (stereo not shown) [Compound 27] the IC50 ([1]; Leishmania amazonensis) was over 10 µM and the IC50 [2] was over 10 µM.

In the case of N#Cc1c(/N=C/c2c[nH]c3ccc(Br)cc23)sc2c1CCC2 [Compound 25], the “IC50 Promastigotes” value ([3]; L. amazonensis promastigotes, previously published) is listed as “inactive against the two evolutionary forms”, the IC50 [3, 7] is listed as over 10 µM and the “IC50 Amastigotes” value ([4]; L. amazonensis axenic amastigotes, previously published) is listed as “inactive against the two evolutionary forms”. The IC50 [4, 8] was over 10 µM.

For N#Cc1c(/N=C/c2c[nH]c3ccccc23)[se]c2c1CCCC2 [Compound 32], the “IC50 Promastigotes” value [1] was “not active up to the highest concentration evaluated” and the IC50 ([1]; Leishmania amazonensis) was over 10 µM.

In the case of “Meglumine antimoniate [reference compound]”, the IC50 [1] is listed as 70.3 µM and 58.9 µM and 67.9 µM, the IC50 [3, 9] is listed as 70.3 µM and the IC50 [4, 10] is listed as 2.77 µM.

For N#Cc1c(/N=C/c2c[nH]c3cccc(Br)c23)sc2c1CCCCCC2 [Compound 42, reference compound], the IC50 [3, 9] is given as 2.9 µM and 2.97 µM and the IC50 [4, 10] is given as 1.7 µM and 1.71 µM.

In the case of N#Cc1c(N)sc2c1CCCCC2 [Compound 7CN], the IC50 [3, 7] is listed as 3.2 µM and 3.14 µM, the IC50 [4, 8] is listed as 2.7 µM and 2.79 µM and the CC50 (RAW 264.7 macrophages) is listed as 99.5 µM.

Cc1cccc2c(/C=N/c3[se]c4c(c3C#N)CCCC4)c[nH]c12 [Compound 36] showed an IC50 [1] of 2.92 µM, an IC50 ([1]; Leishmania amazonensis) of under 3.5 µM and a CC50 at 48 h [5] of 186 µM.

For N#Cc1c(N)sc2c1CCNC2 [Compound 23], the IC50 ([1]; Leishmania amazonensis) was over 10 µM and the IC50 [2] was over 10 µM.

N#Cc1c(N)sc2c1CCC2 [Compound 4] showed an IC50 ([1]; Leishmania amazonensis) of over 10 µM and an IC50 [2] of over 10 µM.

In the case of CC(C)(C)OC(=O)c1c(N)sc2c1CCN(C(=O)OC(C)(C)C)C2 [Compound 22], the IC50 ([1]; Leishmania amazonensis) is reported as 6.52 µM, the IC50 [2] is reported as 8.35 µM and the CC50 at 48 h [5] is reported as 195 µM.

For CCOC(=O)c1c(N)sc2c1CCCC2 [Compound 10], the IC50 ([1]; Leishmania amazonensis) was over 10 µM.

With N=C(N)c1ccc(OCCCCCOc2ccc(C(=N)N)cc2)cc1 [Pentamidine, reference compound] the IC50 ([1]; Leishmania amazonensis) was 42.3 µM and the CC50 at 48 h [5] was 294 µM.

In the case of N#Cc1c(N)sc2c1CCCCCC2 [Compound 8CN], the IC50 [3, 7] is listed as 1.2 µM and the CC50 (RAW 264.7 macrophages) is listed as 43.9 µM.

CCOC(=O)c1c(N)sc2c1CCC2 [Compound 9] gave an IC50 ([1]; Leishmania amazonensis) of over 10 µM.

In the case of CC1CCc2c(sc(/N=C/c3c[nH]c4ccc(Br)cc34)c2C#N)C1 (stereo not shown) [Me-6CN83], the IC50 [3, 7] is given as 9.9 µM, the IC50 [4, 8] is given as 8.7 µM and 8.72 µM and the CC50 (RAW 264.7 macrophages) is given as over 100 µM.

For Cc1ccc2[nH]cc(/C=N/c3sc4c(c3C#N)CCCC4)c2c1 [TN6-1, reference compound], the IC50 [3, 6] is listed as 7.2 µM.

CC(C)(C)OC(=O)N1CCc2c(sc(N)c2C#N)C1 [Compound 17, 2-Amino-6-N-Boc-Piperidine[b]Thiophene-3-Carbonitrile] showed an IC50 ([1]; Leishmania amazonensis) of 8.61 µM and an IC50 [2] of over 10 µM.

In the case of CCOC(=O)c1c(N)sc2c1CCC(C)C2 (stereo not shown) [Compound 20], the IC50 [1] is reported as over 10 µM and the IC50 ([1]; Leishmania amazonensis) is reported as at least 10 µM.

Compound NC(=O)c1c(N)sc2c1CCCC2 [Compound 7] has an IC50 [1] of over 10 µM, an IC50 ([1]; Leishmania amazonensis) of at least 10 µM and an IC50 [2] of over 10 µM.

With NC(=O)c1c(N)sc2c1CCCCCC2 [Compound 8] the IC50 [1] was over 10 µM, the IC50 ([1]; Leishmania amazonensis) was at least 10 µM and the IC50 [2] was over 10 µM.

Work on COc1cccc2[nH]cc(/C=N/c3[se]c4c(c3C#N)CCCC4)c12 [Compound 39] yielded an IC50 [1] of 2.15 µM, an IC50 ([1]; Leishmania amazonensis) of under 3.5 µM and a CC50 at 48 h [5] of 178 µM.

For CCOC(=O)c1c(N)sc2c1CCN(C(=O)OC(C)(C)C)C2 [Compound 21], the IC50 ([1]; Leishmania amazonensis) was 3.1 µM, the IC50 [2] was 2.9 µM and the CC50 at 48 h [5] was 221 µM.
